Test results reported in patent publication US20140127136A1, “LIPOSOMES USEFUL FOR DRUG DELIVERY TO THE BRAIN” (Merrimack Pharmaceuticals, Inc., priority 2004, published 2014).
Values joined by “and” are separate entries in the source; they are usually repeats but may differ in a detail not shown here. Identical values can stand only once. Counter-ions that a name gives are not always drawn. Like-named read-outs stand apart in the source and are kept apart here.

Legend:
[1] = cited from earlier work; for pKa: aqueous solution, ambient temperature, conjugated amine base, value (I) where two are given
[2] = LD50 of triethylammonium sulfate compared with doxorubicin; settings: in vivo
[3] = test system: MDA-MB-468 EGFR-overexpressing human breast cancer cells; assay: Cytotoxicity of free, liposomal and anti-EGFR-immunoliposomal 6-APE; assay type: cell-based; settings: 6 hours exposure, 3 days post-incubation
[4] = test system: MCF-7 human breast cancer cells with low EGFR expression; assay: as above; assay type: cell-based; settings: 6 hours exposure, 3 days post-incubation
[5] = test system: HER2-overexpressing human breast carcinoma cells (BT-474); assay: MTT cytotoxicity of 6-APE formulations; settings: 6 hours exposure, 3 days post-incubation
[6] = test system: human breast carcinoma BT-474 xenografts; assay: Antitumor efficacy of CPT-11 liposomes (TEA-Pn) against breast cancer xenografts in nude mice; assay type: in vivo, NCR nu/nu mice; settings: 50 mg CPT-11/kg i.v. on days 14, 18, 21, 25
orthotopic U87 tumors = settings: 60 μg (3 mg/ml), single CED 5 d after implantation
[7] = MTD seeking study of CPT-11 formulations, single i.v. injection; assay type: in vivo, Swiss Webster mice
[8] = mouse, 0.1 mg/ml
[9] = Pharmacokinetics of irinotecan formulations administered by CED into normal brain tissue; settings: 3 mg/ml
in vivo [10] = settings: Sprague-Dawley, rat, brain, other: CED infusion into the brain, 0.06 mg
[11] = Toxicity of free and liposomal irinotecan following CED delivery into the brain; assay type: in vivo, rats; settings: for brain tissue toxicity 60 days after CED: single 20 μl CED infusion
Procedure: Ls-CPT-11 was prepared and the CED procedure used were described in Example 68. To evaluate toxicity, healthy rats received a single infusion of free, i.e., dissolved, or Ls-CPT-11 via CED. […] Rats were euthanized 60 days after CED treatments, and their brains were harvested, sectioned and stained for standard pathology xamination.
No systemic toxicities, including weight loss or diarrhea, were observed following CED of any of the treatments. Furthermore, no gross neurologic or behavioral changes were noted post-treatment. Indeed, no dose-limiting toxicities for nanoliposomal CPT-11 were identified up to 1.6 mg/rat in a single 0.02 mL infusion, which represented the highest dose achieved without further concentrationg the liposomal sample.

[12] = test system: subcutaneous xenografts of human colon carcinoma (HT-29); assay: Antitumor activity of free and liposomal CPT-11 against HT-29 xenografts; assay type: in vivo, NCR nu/nu athymic nude mice; settings: 50 mg/kg per injection
[13] = test system: HT-29 human colon carcinoma xenografts; settings: 5 mg/kg i.v. every three days, four injections
[14] = test system: HER2-overexpressing human non-small cell lung carcinoma cells CaLu-3; settings: MTT
[15] = test system: subcutaneous xenograft tumors of BT-474 human breast carcinoma; assay: Antitumor efficacy of non-targeted and HER2-targeted liposomal vincristine; assay type: in vivo, nude mice; settings: 2 mg VCR/kg weekly i.v. for three weeks
[16] = Stability and plasma pharmacokinetics of liposomal and F5-immunoliposomal Topotecan in mice; assay type: in vivo, Swiss Webster mice; settings: mouse plasma, 1 hour post i.v. injection, 5 mg/kg
Procedure: Topotecan liposomes containing radioactive lipid label [^3H]-CHE at 1.5 mCi/mmol of phospholipid were prepared according to Examples 11 and 19 using an ethanol lipid solution mixing-extrusion procedure under the following conditions: gradient-forming salt solution: 0.643 N triethylammonium sucrose octasulfate; polycarbonate membrane extrusion: 15 passages through 2 stacked PCTE filters, 80 nm pore size; Topotecan loading: drug/phospholipid input ratio 350 mg/mmol (calculated for Topotecan free base); F5 scFv conjugation was performed as described in Example 19. The liposomes had the following characteristics:
The study was performed generally as in Example 22. […] At 1 hour, 8 hour, or 24 hour post injection time points, 3 animals per time point were exsanguinated via open heart punction under Ketamine/Xylazine anesthesia, the blood was collected into tubes containing PBS-EDTA, and assayed for Topotecan (fluorometry) and liposome lipid (by radioactivity scintillation counting). […] The amount of drug remaining encapsulated in the liposomes at each time point was calculated for each animal individually by comparing drug/lipid radioactivity ratio of the plasma samples with that of the injected liposomes. […]

[17] = test system: U87MG intracranial glioblastoma xenograft; assay: Therapeutic efficacy of liposomal topotecan by CED against intracranial glioma xenografts; assay type: in vivo, athymic rats; settings: CED 20 μl, 0.5 mg/ml, 7 days after tumor implantation
Procedure: Twenty one athymic rats received the implantation of U87MG tumor cells (5×10^5 cells/10 μl HBSS) into their right striatum and were divided randomly into three groups. Under deep isofluorane anesthesia, rats were placed in a small-animal stereotaxic frame (David Kopf Instruments, Tujunga, Calif.). […] After 2 min, another 5 μl was injected at a depth of 4 mm. After an additional 2 min, the needle was removed and the wound was closed with sutures.
All control rats and rats treated with free TPT developed neurological symptoms around day 17-26 due to large intracranial tumors that were confirmed by histology.
To evaluate the treatment of larger tumors, the U87MG intracranial model was developed in 12 rats. However, in this experiment CED was performed 12 days after tumor implantation (FIG. 48B). […] Therefore, to achieve proper coverage of the tumor, there is the need for guided and image-monitored administration of the liposomal drug.

[18] = Brain tissue pharmacokinetics of free and liposomal topotecan delivered by CED
[19] = Maximum tolerated dose of free and liposomal Topotecan, 3 weekly i.v. injections; settings: female, Swiss-Webster, mouse, in vivo, iv
SKBr-3 cells = assay: MTT cytotoxicity of Topotecan formulations (TEA-Pn); assay type: cell-based; settings: Homo sapiens, SK-BR-3, read-out: IC50 (drug dose resulting in 50% growth inhibition), 4-6 hours exposure, 4 days post-incubation
[20] = Animal body weights in the BT-474 Topotecan MTD-fraction study; assay type: in vivo, nude mice; settings: at MTD, i.v. at day 19, 23, 27
Text: The control group received injections of physiological saline. […] There was no significant difference in efficacy between free and liposomal drug given at their respective MTD or at identical fractions (½, ¼, or ⅛) thereof.

in vivo [21] = settings: Sprague-Dawley, rat, brain, other: CED infusion into the brain, 0.01 mg
[22] = inj. dose 60 mg/kg, single i.v., individual mice, hydrochloride, 60 mg/kg
[23] = inj. dose 70 mg/kg, single i.v., individual mice, hydrochloride, 70 mg/kg
[24] = inj. dose 80 mg/kg, single i.v., individual mice, hydrochloride, 80 mg/kg
[25] = rat brain tissue, CED 20 μl, 0.5 mg/ml

In the case of `CN1CCCCC1` [N-methylpiperidine], the pKa [1] is listed as 10.38.

For `CN1CCN(C)CC1` [N,N′-dimethylpiperazine], the pKa [1] is given as 9.66 and the “pKa (II)” value ([1]; second ammonium group) is given as 5.2.

For triethylammonium sulfate, the “LD50 relative to the LD50 of doxorubicin” value [2] was “about 40 times”.

For 6-(3-aminopropyl)ellipticine [free APE], the IC50 [3] was “about 0.1 μg/ml”, the IC50 [4] was “about 0.5 μg/ml” and the IC50 [5] was 0.26 μg APE/ml.

In the case of `NC1CCCCC1` [cyclohexylamine], the pKa [1] is given as 10.66.

In the case of `C1CCC(NC2CCCCC2)CC1` [dicyclohexylamine], the pKa [1] is listed as 10.4.

In the case of `CCN(C)CC` [diethylmethylamine], the pKa [1] is listed as 10.35.

In the case of `OCCN1CCOCC1` [N-hydroxyethylmorpholine], the pKa [1] is listed as 7.39.

With `CCc1c2c(nc3ccc(OC(=O)N4CCC(N5CCCCC5)CC4)cc13)-c1cc3c(c(=O)n1C2)COC(=O)[C@]3(O)CC` [free CPT-11, Irinotecan hydrochloride] the “average tumor size at day 46” value [6] was “about 1,000 mm^3”, the “effect on tumor growth” value [6] was “reduced the rate of tumor growth” and the Median survival (orthotopic U87 tumors) was 28.5 days. The MTD at 7 days ([7]; Swiss Webster, mouse, in vivo, iv, acute, single i.v. injection, mice) was 80 mg/kg, the “Animal body weight at day 1 post injection” value [7, 22] was 20.4 g and 19.1 g and 20.0 g and 18.7 g and the “Animal body weight at day 2 post injection” value [7, 22] was 20.9 g and 19.4 g. The “Animal body weight at day 4 post injection” value [7, 22] was 22.1 g and 20.2 g, the “Animal body weight at day 6 post injection” value [7, 22] was 22.2 g and 20.4 g and the “Animal body weight at day 11 post injection” value [7, 22] was 22.5 g and 21.1 g. For the same compound, the “Animal body weight at day 1 post injection” value [7, 23] was 20.0 g and 21.8 g, the “Animal body weight at day 2 post injection” value [7, 23] was 20.6 g and 22.4 g and the “Animal body weight at day 1 post injection” value [7, 24] was 19.9 g and 20.8 g. The “Animal body weight at day 2 post injection” value [7, 24] was 20.1 g and 21.1 g, the “Animal body weight at day 3 post injection” value [7, 24] was 19.3 g and 20.6 g (2×) and 21.4 g and 21.9 g and the outcome after injection ([7]; inj. dose 90 mg/kg, single i.v., individual mice) was “died 1-2 min after injection”. For the same compound, the outcome after injection ([7]; inj. dose 100 mg/kg, single i.v., individual mice) was “died 1-2 min after injection”, the “CPT-11, % carboxylate” value ([8]; 2 h) was 35.2 ± 1.9% and the “CPT-11, % lactone” value ([8]; 2 h) was 1.9 ± 0.4%. The “SN-38, % carboxylate” value ([8]; 2 h) was 58.4 ± 2.1%, the “SN-38, % lactone” value ([8]; 2 h) was 4.4 ± 0.1% and the “CPT-11, % carboxylate” value ([8]; 12 h) was 11.5 ± 0.9%. For the same compound, the “CPT-11, % lactone” value ([8]; 12 h) was less than 0.1%, the “SN-38, % carboxylate” value ([8]; 12 h) was 78.6 ± 1.3% and the “SN-38, % lactone” value ([8]; 12 h) was 9.9 ± 0.8%. The “CPT-11, % carboxylate” value ([8]; 24 h) was less than 0.1%, the “CPT-11, % lactone” value ([8]; 24 h) was less than 0.1% and the “SN-38, % carboxylate” value ([8]; 24 h) was 77.5 ± 9.8%. For the same compound, the “AUC∞” value [9] was 16.4 µg·days/g, the MRT (in vivo [10]) was 9.6 h and the “brain tissue toxicity 60 days after CED” value ([11]; 60 μg) was “no apparent tissue toxicity”. For the same compound, the “brain tissue toxicity 60 days after CED” value ([11]; 0.4 mg/rat) was “extensive tissue necrosis within the CNS”, the highest tolerable dose ([11]; CED into rat brain) was 60 μg/infusion and the “weight loss during treatment, % of pre-treatment value” (50 mg/kg per injection (free: permanent; liposomal: transient)) was “about 6%”. The “condition after drug injection” value (50 mg/kg, for about one hour after injection) was “temporary morbidity”, the “animals tumor-free at the end of study without signs of regrowth” value [12] was “no animals without tumor regrowth” and the “effect on the tumor growth” value [12] was “only minor effect on the tumor growth”. For the same compound, the “Average tumor doubling time” value ([12]; 4 i.v. injections at intervals of 4 days) was 4.8 days.

For `c1c[nH]cn1` [imidazole], the pKa [1] is listed as 7.03.

In the case of `CCC1=C[C@@H]2CN(C1)Cc1c([nH]c3ccccc13)[C@@](C(=O)OC)(c1cc3c(cc1OC)N(C)[C@H]1[C@@](O)(C(=O)OC)[C@H](OC(C)=O)[C@]4(CC)C=CCN5CC[C@]31[C@@H]54)C2.O=C(O)C(O)C(O)C(=O)O.O=C(O)C(O)C(O)C(=O)O` [free VRB, vinorelbine bitartrate], the “effect on tumor growth” value [13] is reported as “the tumors always continued to grow” and the IC50 [14] is reported as 1.2 µg/mL.

For `CCCN(C)C` [dimethylpropylamine], the pKa [1] is listed as 10.15.

With `CC[C@]1(O)C[C@H]2CN(CCc3c([nH]c4ccccc34)[C@@](C(=O)OC)(c3cc4c(cc3OC)N(C=O)[C@H]3[C@@](O)(C(=O)OC)[C@H](OC(C)=O)[C@]5(CC)C=CCN6CC[C@]43[C@@H]65)C2)C1` [free VCR, vincristine sulfate] the comparative efficacy [15] was “less effective than either F5-ILs-VCR or Ls-VCR-Cit”.

For `CC(C)(C)N` [tert-butylamine], the pKa [1] is listed as 10.68.

In the case of `CC(C)N` [Isopropylamine], the pKa [1] is listed as 10.53.

For `OCCN1CCCC1` [N-hyrdoxyethylpyrrolidine], the pKa [1] is listed as 9.44.

In the case of `CC[C@@]1(O)C(=O)OCc2c1cc1n(c2=O)Cc2cc3c(CN(C)C)c(O)ccc3nc2-1` [free Topotecan, Topotecan Hydrochloride], the “Drug, % of injected dose” value [16] is reported as “less than 1%”, the “survival / anti-tumor effect” value [17] is reported as “no survival benefits” and the “AUC∞” value [18, 25] is reported as 2.8 µg·days/g. For the same compound, the “CL” value [18, 25] was 3.6 g/day, the “persistence in brain tissue post CED (detected as long as / completely cleared within)” value ([18]; rat brain, CED) was no more than 1 days and the MTD at 3 once-a-week injections [19] was 18.4 mg/kg. The MTD at 10 days [19] was 11.7 to 21 mg/kg, the IC50 (SKBr-3 cells) was greater than 30 µg/mL and the “transient decrease in body weight, % of the pre-treatment value” [20] was “about 15%”. It also gave an MRT (in vivo [21]) of 2.4 h and a half-life (in vivo [21]) of 2.4 h.

For `CC(C)(N)CO` [2-amino-2-methylpropanol], the pKa [1] is listed as 9.69.
